Results published in patent publication US20170368082A1, “FORMULATIONS OF BRINCIDOFOVIR” (priority 2016, published 2017).
“And” between values parts separate entries of the source, which are not always exact repeats. Identical values can stand only once.

Experiment: Phase 2 toxicokinetics of brincidofovir and cidofovir in plasma
Format: in vivo, Sprague-Dawley CD rats
Set-up: Imputed Concentration, Mean: unit: ng/mL
Details: plasma; for C (Concentration), individual animals: 15 mg/kg; for Imputed Concentration, individual animals / Imputed Concentration, Mean: BLQ imputed as zero
Description: Plasma samples (108) were collected 2 hours following the initiation of dosing on Day 1 and Day 7 (Group 1), or at 1, 2, 8, and 24 hours following the initiation of dosing on Day 1, and prior to administration and at 2, 8, and 24 hours following the initiation of dosing on Day 7 (Groups 2 and 3), and analyzed to determine the concentrations of brincidofovir and the metabolite, cidofovir), by LC/MS/MS.
Approximately 0.4 mL of whole blood was obtained via the tail vein from each animal at each time point. Animals were not fasted prior to blood collection. Blood was collected into tubes containing K2EDTA anticoagulant and placed on wet ice in an upright position, per facility SOP prior to processing. Plasma was separated by centrifugation (10 minutes at approximately 2000 g, at approximately 2-8° C.). Approximately 0.10 mL of plasma was transferred into a single cryotube appropriately labeled with study number, animal number, time point, date of sampling and sample type. Remaining plasma was transferred into a second cryotube and retained as a backup sample. Plasma frozen at approximately −80±10° C. within approximately 2 hours after collection of each blood sample until analysis. Animals were euthanized (CO2 inhalation) after the final blood collection.
In general, TK parameters were estimated using mean plasma concentrations of brincidofovir and cidofovir derived from the composite blood sampling design using Phoenix WinNonLin (V 6.3).
A composite blood sampling design was used such that each rat was sampled twice per sampling day. Blood was collected via tail vein from unanesthetized animals into tubes containing anticoagulant and placed on wet ice in an upright position. Animals were not fasted prior to blood collection. Plasma was separated by centrifugation (for 10 minutes at approximately 2000 g, at approximately 2-8° C.), and transferred into individually labeled cryotubes. All cryotubes containing the collected plasma samples were appropriately labeled as to study number, animal number, time point, date of sampling and sample type. All plasma samples were obtained and frozen at approximately −80° C. (±10° C.) within approximately 2 hours after collection of each blood sample until analysis.
Rat plasma bioanalysis was conducted by Pyxant Laboratories. Plasma samples were analyzed for concentrations of brincidofovir and cidofovir using a method based upon protein precipitation extraction followed by LC-MS/MS analysis; calibration ranges for brincidofovir and cidofovir were 1.00-1500 ng/mL and 5.00-750 ng/mL, respectively, (Pyxant study number 3025) for a 50 μL aliquot of rat plasma. Sample analysis for ISR was not performed as part of this non-GLP study.
For the generation of Mean Profiles, all sample concentrations that were below the limit of quantitation (BLQ) were set to 0.
All pharmacokinetic parameter estimates were completed using a Non-Compartmental Model (Model 200-202 for IV infusion administration). The AUClast and AUCinf were calculated using the linear up log down trapezoidal rule.

[1] = brincidofovir 1 mg/kg 2-h IV infusion, female rats, Day 7, 0 h
[2] = brincidofovir 1 mg/kg 2-h IV infusion, female rats, Day 7, 24 h
[3] = brincidofovir 1 mg/kg 2-h IV infusion, male rats, Day 7, 8 h
[4] = brincidofovir 1 mg/kg 2-h IV infusion, male rats, Day 7, 24 h
[5] = brincidofovir 15 mg/kg 2-h IV infusion, female rats, Day 7, 0 h
[6] = brincidofovir 15 mg/kg 2-h IV infusion, male rats, Day 7, 0 h

## CCCCCCCCCCCCCCCCOCCCOP(=O)(O)CO[C@H](CO)Cn1ccc(N)nc1=O [Brincidofovir]
Female rats, Day 7, 24 h, listed as BCV
  C (Concentration), individual animals: BLQ
Male rats, Day 7, 0 h
  C (Concentration), individual animals: BLQ
Brincidofovir 1 mg/kg 2-h IV infusion, female rats, Day 1, 1 h, listed as BCV
  Imputed Concentration, individual animals: 126 ng/mL and 177 ng/mL
Brincidofovir 1 mg/kg 2-h IV infusion, female rats, Day 1, 2 h, listed as BCV
  Imputed Concentration, individual animals: 164 ng/mL and 155 ng/mL
Brincidofovir 1 mg/kg 2-h IV infusion, female rats, Day 1, 8 h, listed as BCV
  Imputed Concentration, individual animals: 2.30 ng/mL and 1.45 ng/mL and 0.00 ng/mL
Brincidofovir 1 mg/kg 2-h IV infusion, female rats, Day 1, 24 h
  Imputed Concentration, individual animals: 0.00 ng/mL
[1]
  Imputed Concentration, Mean: 0.00 ng/mL
  Imputed Concentration, individual animals: 0.00 ng/mL
Brincidofovir 1 mg/kg 2-h IV infusion, female rats, Day 7, 2 h
  Imputed Concentration, Mean: 95.4 ng/mL
Brincidofovir 1 mg/kg 2-h IV infusion, female rats, Day 7, 2 h, listed as BCV
  Imputed Concentration, individual animals: 115 ng/mL and 82.1 ng/mL and 89.2 ng/mL
Brincidofovir 1 mg/kg 2-h IV infusion, female rats, Day 7, 8 h
  Imputed Concentration, Mean: 2.19 ng/mL
Brincidofovir 1 mg/kg 2-h IV infusion, female rats, Day 7, 8 h, listed as BCV
  Imputed Concentration, individual animals: 6.58 ng/mL and 0.00 ng/mL (2×)
[2]
  Imputed Concentration, Mean: 0.00 ng/mL
  Imputed Concentration, individual animals: 0.00 ng/mL
Brincidofovir 1 mg/kg 2-h IV infusion, male rats, Day 1, 1 h, listed as BCV
  Imputed Concentration, individual animals: 244 ng/mL and 280 ng/mL
Brincidofovir 1 mg/kg 2-h IV infusion, male rats, Day 1, 2 h, listed as BCV
  Imputed Concentration, individual animals: 283 ng/mL and 203 ng/mL
Brincidofovir 1 mg/kg 2-h IV infusion, male rats, Day 1, 8 h
  Imputed Concentration, individual animals: 0.00 ng/mL
Brincidofovir 1 mg/kg 2-h IV infusion, male rats, Day 1, 24 h
  Imputed Concentration, individual animals: 0.00 ng/mL
Brincidofovir 1 mg/kg 2-h IV infusion, male rats, Day 7, 0 h
  Imputed Concentration, individual animals: 0.00 ng/mL
Brincidofovir 1 mg/kg 2-h IV infusion, male rats, Day 7, 2 h
  Imputed Concentration, Mean: 208 ng/mL
Brincidofovir 1 mg/kg 2-h IV infusion, male rats, Day 7, 2 h, listed as BCV
  Imputed Concentration, individual animals: 255 ng/mL and 189 ng/mL and 179 ng/mL
[3]
  Imputed Concentration, Mean: 0.00 ng/mL
  Imputed Concentration, individual animals: 0.00 ng/mL
[4]
  Imputed Concentration, Mean: 0.00 ng/mL
  Imputed Concentration, individual animals: 0.00 ng/mL
Brincidofovir 15 mg/kg 2-h IV infusion, female rats, Day 1, 1 h
  Imputed Concentration, Mean: 3470
Brincidofovir 15 mg/kg 2-h IV infusion, female rats, Day 1, 1 h, listed as BCV
  Imputed Concentration, individual animals: 3030 and 3930 and 3450
Brincidofovir 15 mg/kg 2-h IV infusion, female rats, Day 1, 2 h
  Imputed Concentration, Mean: 2570
Brincidofovir 15 mg/kg 2-h IV infusion, female rats, Day 1, 2 h, listed as BCV
  Imputed Concentration, individual animals: 2460 and 1860 and 3380
Brincidofovir 15 mg/kg 2-h IV infusion, female rats, Day 1, 8 h
  Imputed Concentration, Mean: 6.53
Brincidofovir 15 mg/kg 2-h IV infusion, female rats, Day 1, 8 h, listed as BCV
  Imputed Concentration, individual animals: 5.05 and 7.97 and 6.57
Brincidofovir 15 mg/kg 2-h IV infusion, female rats, Day 1, 24 h
  Imputed Concentration, Mean: 2.02
Brincidofovir 15 mg/kg 2-h IV infusion, female rats, Day 1, 24 h, listed as BCV
  Imputed Concentration, individual animals: 2.32 and 1.25 and 2.48
[5]
  Imputed Concentration, Mean: 0.00
  Imputed Concentration, individual animals: 0.00
Brincidofovir 15 mg/kg 2-h IV infusion, female rats, Day 7, 2 h
  Imputed Concentration, Mean: 1660
Brincidofovir 15 mg/kg 2-h IV infusion, female rats, Day 7, 2 h, listed as BCV
  Imputed Concentration, individual animals: 2220 and 995 and 1750
Brincidofovir 15 mg/kg 2-h IV infusion, female rats, Day 7, 8 h, listed as BCV
  Imputed Concentration, individual animals: 5.32 and 6.27 and 4.75
Brincidofovir 15 mg/kg 2-h IV infusion, male rats, Day 1, 1 h
  Imputed Concentration, Mean: 4370
Brincidofovir 15 mg/kg 2-h IV infusion, male rats, Day 1, 1 h, listed as BCV
  Imputed Concentration, individual animals: 4020 and 4030 and 5060
Brincidofovir 15 mg/kg 2-h IV infusion, male rats, Day 1, 2 h
  Imputed Concentration, Mean: 2840
Brincidofovir 15 mg/kg 2-h IV infusion, male rats, Day 1, 2 h, listed as BCV
  Imputed Concentration, individual animals: 2510 and 2990 and 3010
Brincidofovir 15 mg/kg 2-h IV infusion, male rats, Day 1, 8 h
  Imputed Concentration, Mean: 9.59
Brincidofovir 15 mg/kg 2-h IV infusion, male rats, Day 1, 8 h, listed as BCV
  Imputed Concentration, individual animals: 10.7 and 8.23 and 9.85
Brincidofovir 15 mg/kg 2-h IV infusion, male rats, Day 1, 24 h
  Imputed Concentration, Mean: 1.22
Brincidofovir 15 mg/kg 2-h IV infusion, male rats, Day 1, 24 h, listed as BCV
  Imputed Concentration, individual animals: 1.20 and 1.10 and 1.36
[6]
  Imputed Concentration, Mean: 0.00
  Imputed Concentration, individual animals: 0.00
Brincidofovir 15 mg/kg 2-h IV infusion, male rats, Day 7, 2 h
  Imputed Concentration, Mean: 1910
Brincidofovir 15 mg/kg 2-h IV infusion, male rats, Day 7, 2 h, listed as BCV
  Imputed Concentration, individual animals: 1640 and 1940 and 2150
Brincidofovir 15 mg/kg 2-h IV infusion, male rats, Day 7, 8 h, listed as BCV
  Imputed Concentration, individual animals: 9.82 and 7.60 and 8.73
